The assay concerns Human platelet aggregation caused by ADP. Nature of the assay: Inhibition of ADP-induced platelet aggregation (Mimic-human PRP). It is filed as cell-based. To be noted: 20 μM ADP, human platelet concentrate diluted with PPP, absorption at 595 nm. In outline: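 Human PRP diluted with PPP to 3–4×10^8 platelets/mL was preincubated 20 min at room temperature with compound (0.01–30 μM, DMSO), then stimulated with 20 μM ADP. Aggregation read as A595 increase at 3 min versus 0 and 20 μM ADP controls; Ki from sigmoidal non-linear regression.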

SMILES strings stand for the structures. pKi: −log10 of the molar value.

`CCCc1cc2c(N3CCn4c(nnc4C(F)(F)F)C3)nc(OCC(C)NC=O)nc2s1` (stereo not drawn) [Example 9-75, N-{1-Methyl-2-[6-propyl-4-(3-trifluoromethyl-5,6-dihydro-8H-[1,2,4]triazolo[4,3-a]pyrazin-7-yl)-thieno[2,3-d]pyrimidin-2-yloxy]-ethyl}-formamide] showed a negative-log Ki (pKi) of 8.52.
Next, `CCCc1cc2c(N3CCn4c(nnc4C(F)(F)F)C3)nc(OC(C)CNC(C)=O)nc2s1` (stereo not drawn) [Example 9-76, N-{2-[6-Propyl-4-(3-trifluoromethyl-5,6-dihydro-8H-[1,2,4]triazolo[4,3-a]pyrazin-7-yl)-thieno[2,3-d]pyrimidin-2-yloxy]-propyl}-acetamide]: 7.66.
In the case of `CCCc1cc2c(N3CCn4c(nnc4C(F)(F)F)C3)nc(OCC(C)NC(C)=O)nc2s1` (stereo not drawn) [Example 9-77, N-{1-Methyl-2-[6-propyl-4-(3-trifluoromethyl-5,6-dihydro-8H-[1,2,4]triazolo[4,3-a]pyrazin-7-yl)-thieno[2,3-d]pyrimidin-2-yloxy]-ethyl}-acetamide] it was 8.22; in that of `CCCc1cc2c(N3CCn4c(nnc4C(F)(F)F)C3)nc(OCC(C)(C)NC=O)nc2s1` [Example 9-78, N-{1,1-Dimethyl-2-[6-propyl-4-(3-trifluoromethyl-5,6-dihydro-8H-[1,2,4]triazolo[4,3-a]pyrazin-7-yl)-thieno[2,3-d]pyrimidin-2-yloxy]-ethyl}-formamide], 7.60.
`CCCc1cc2c(N3CCn4c(nnc4C(F)(F)F)C3)nc(OCC(C)(C)NC(C)=O)nc2s1` [Example 9-79, N-{1,1-Dimethyl-2-[6-propyl-4-(3-trifluoromethyl-5,6-dihydro-8H-[1,2,4]triazolo[4,3-a]pyrazin-7-yl)-thieno[2,3-d]pyrimidin-2-yloxy]-ethyl}-acetamide]: the pKi is 8.47.
`CCCc1cc2c(N3CCn4c(nnc4C(F)(F)F)C3)nc(OC(C)CNC(=O)OC)nc2s1` (stereo not drawn) [Example 9-80, {2-[6-Propyl-4-(3-trifluoromethyl-5,6-dihydro-8H-[1,2,4]triazolo[4,3-a]pyrazin-7-yl)-thieno[2,3-d]pyrimidin-2-yloxy]-propyl}-carbamic acid methyl ester] showed a pKi of 7.82.
On to `CCCc1cc2c(N3CCn4c(nnc4C(F)(F)F)C3)nc(OCC(C)NC(=O)OC)nc2s1` (stereo not drawn) [Example 9-81, {1-Methyl-2-[6-propyl-4-(3-trifluoromethyl-5,6-dihydro-8H-[1,2,4]triazolo[4,3-a]pyrazin-7-yl)-thieno[2,3-d]pyrimidin-2-yloxy]-ethyl}-carbamic acid methyl ester], for which the pKi was 8.15.
Next, `CCCc1cc2c(N3CCn4c(nnc4C(F)(F)F)C3)nc(OCC(C)(C)NC(=O)OC)nc2s1` [Example 9-82, {1,1-Dimethyl-2-[6-propyl-4-(3-trifluoromethyl-5,6-dihydro-8H-[1,2,4]triazolo[4,3-a]pyrazin-7-yl)-thieno[2,3-d]pyrimidin-2-yloxy]-ethyl}-carbamic acid methyl ester]: 8.30.
Next, `CCCc1cc2c(N3CCn4c(nnc4C(F)(F)F)C3)nc(OCCF)nc2s1` [Example 9-83, 7-[2-(2-Fluoro-ethoxy)-6-propyl-thieno[2,3-d]pyrimidin-4-yl]-3-trifluoromethyl-5,6,7,8-tetrahydro-[1,2,4]triazolo[4,3-a]pyrazine]: 9.52; `CCCc1cc2c(N3CCn4c(nnc4C(F)(F)F)C3)nc(OCC(F)(F)F)nc2s1` [Example 9-84, 7-[6-Propyl-2-(2,2,2-trifluoro-ethoxy)-thieno[2,3-d]pyrimidin-4-yl]-3-trifluoromethyl-5,6,7,8-tetrahydro-[1,2,4]triazolo[4,3-a]pyrazine]: 6.17.
Next, `CCCc1cc2c(N3CCn4c(nnc4C(F)(F)F)C3)nc(OCCCN3CCCC3=O)nc2s1` [Example 9-85, 1-{3-[6-Propyl-4-(3-trifluoromethyl-5,6-dihydro-8H-[1,2,4]triazolo[4,3-a]pyrazin-7-yl)-thieno[2,3-d]pyrimidin-2-yloxy]-propyl}-pyrrolidin-2-one]: 5.70.
Regarding `CCCc1cc2c(N3CCn4c(nnc4C(F)(F)F)C3)nc(OCCCNC(=O)OC)nc2s1` [Example 9-86, {3-[6-Propyl-4-(3-trifluoromethyl-5,6-dihydro-8H-[1,2,4]triazolo[4,3-a]pyrazin-7-yl)-thieno[2,3-d]pyrimidin-2-yloxy]-propyl}-carbamic acid methyl ester], the pKi is 6.16.
Next, `CCCc1cc2c(N3CCn4c(nnc4C(F)(F)F)C3)nc(OCCCNC(C)=O)nc2s1` [Example 9-87, N-{3-[6-Propyl-4-(3-trifluoromethyl-5,6-dihydro-8H-[1,2,4]triazolo[4,3-a]pyrazin-7-yl)-thieno[2,3-d]pyrimidin-2-yloxy]-propyl}-acetamide]: 6.37; `CCCc1cc2c(N3CCn4c(nnc4C(F)(F)F)C3)nc(OCCCCNC(=O)OC)nc2s1` [Example 9-88, {4-[6-Propyl-4-(3-trifluoromethyl-5,6-dihydro-8H-[1,2,4]triazolo[4,3-a]pyrazin-7-yl)-thieno[2,3-d]pyrimidin-2-yloxy]-butyl}-carbamic acid methyl ester]: 6.38; `CCCc1cc2c(N3CCn4c(nnc4C(F)(F)F)C3)nc(OCCCCNC(C)=O)nc2s1` [Example 9-89, N-{4-[6-Propyl-4-(3-trifluoromethyl-5,6-dihydro-8H-[1,2,4]triazolo[4,3-a]pyrazin-7-yl)-thieno[2,3-d]pyrimidin-2-yloxy]-butyl}-acetamide]: 6.54.
In the case of `CCCc1cc2c(N3CCn4c(nnc4C(F)(F)F)C3)nc(OCCCNC=O)nc2s1` [Example 9-90, N-{3-[6-Propyl-4-(3-trifluoromethyl-5,6-dihydro-8H-[1,2,4]triazolo[4,3-a]pyrazin-7-yl)-thieno[2,3-d]pyrimidin-2-yloxy]-propyl}-formamide] it was 6.96; in that of `CCCc1cc2c(N3CCn4c(nnc4C(F)(F)F)C3)nc(OCCCCNC=O)nc2s1` [Example 9-91, N-{4-[6-Propyl-4-(3-trifluoromethyl-5,6-dihydro-8H-[1,2,4]triazolo[4,3-a]pyrazin-7-yl)-thieno[2,3-d]pyrimidin-2-yloxy]-butyl}-formamide], 6.72.
Next, `CCCc1cc2c(N3CCn4c(nnc4C(F)(F)F)C3)nc(OCCCn3cccc3)nc2s1` [Example 9-92, 7-[6-Propyl-2-(3-pyrrol-1-yl-propoxy)-thieno[2,3-d]pyrimidin-4-yl]-3-trifluoromethyl-5,6,7,8-tetrahydro-[1,2,4]triazolo[4,3-a]pyrazine]: 5.89; `CCCc1cc2c(N3CCn4c(nnc4C(F)(F)F)C3)nc(OCCN(C)C=O)nc2s1` [Example 9-93, N-Methyl-N-{2-[6-propyl-4-(3-trifluoromethyl-5,6-dihydro-8H-[1,2,4]triazolo[4,3-a]pyrazin-7-yl)-thieno[2,3-d]pyrimidin-2-yloxy]-ethyl}-formamide]: 7.28.
`CCCc1cc2c(N3CCn4c(nnc4C(F)(F)F)C3)nc(N3CC[C@H](N(CCO)C(=O)OC)C3)nc2s1` [Example 9-94, (2-Hydroxy-ethyl)-{(S)-1-[6-propyl-4-(3-trifluoromethyl-5,6-dihydro-8H-[1,2,4]triazolo[4,3-a]pyrazin-7-yl)-thieno[2,3-d]pyrimidin-2-yl]-pyrrolidin-3-yl}-carbamic acid methyl ester] had a negative logarithm of the Ki (pKi) of 6.55.
Next, `CCCc1cc2c(N3CCn4c(nnc4C(F)(F)F)C3)nc(OCCN(C)C(=O)OC)nc2s1` [Example 9-95, Methyl-{2-[6-propyl-4-(3-trifluoromethyl-5,6-dihydro-8H-[1,2,4]triazolo[4,3-a]pyrazin-7-yl)-thieno[2,3-d]pyrimidin-2-yloxy]-ethyl}-carbamic acid methyl ester]: 8.14.
`CCCc1cc2c(N3CCn4c(nnc4C(F)(F)F)C3)nc(N3CC[C@H](N(CCO)C(C)=O)C3)nc2s1` [Example 9-96, N-(2-Hydroxy-ethyl)-N-{(S)-1-[6-propyl-4-(3-trifluoromethyl-5,6-dihydro-8H-[1,2,4]triazolo[4,3-a]pyrazin-7-yl)-thieno[2,3-d]pyrimidin-2-yl]-pyrrolidin-3-yl}-acetamide] gave a pKi of 7.11.
On to `CCCc1cc2c(N3CCn4c(nnc4C(F)(F)F)C3)nc(OCCN(C)C(C)=O)nc2s1` [Example 9-97, N-Methyl-N-{2-[6-propyl-4-(3-trifluoromethyl-5,6-dihydro-8H-[1,2,4]triazolo[4,3-a]pyrazin-7-yl)-thieno[2,3-d]pyrimidin-2-yloxy]-ethyl}-acetamide], for which the pKi was 8.22.
Next, `CCCc1cc2c(N3CCn4c(nnc4C(F)(F)F)C3)nc(OCCN(CCO)C(=O)OC)nc2s1` [Example 9-98, (2-Hydroxy-ethyl)-{2-[6-propyl-4-(3-trifluoromethyl-5,6-dihydro-8H-[1,2,4]triazolo[4,3-a]pyrazin-7-yl)-thieno[2,3-d]pyrimidin-2-yloxy]-ethyl}-carbamic acid methyl ester]: 7.64; `CCCc1cc2c(N3CCn4c(nnc4C(F)(F)F)C3)nc(OCCN3CCOC3=O)nc2s1` [Example 9-99, 3-{2-[6-Propyl-4-(3-trifluoromethyl-5,6-dihydro-8H-[1,2,4]triazolo[4,3-a]pyrazin-7-yl)-thieno[2,3-d]pyrimidin-2-yloxy]-ethyl}-oxazolidin-2-one]: 8.40; `CCCc1cc2c(N3CCn4c(nnc4C(F)(F)F)C3)nc(OCCN(CCOC(C)=O)C(C)=O)nc2s1` [Example 9-100, Acetic Acid 2-(acetyl-{2-[6-propyl-4-(3-trifluoromethyl-5,6-dihydro-8H-[1,2,4]triazolo[4,3-a]pyrazin-7-yl)-thieno[2,3-d]pyrimidin-2-yloxy]-ethyl}-amino)-ethyl ester]: 7.42.
In the case of `CCCc1cc2c(N3CCn4c(nnc4C(F)(F)F)C3)nc(OCCN(C=O)CCO)nc2s1` [Example 9-101, N-(2-Hydroxy-ethyl)-N-{2-[6-propyl-4-(3-trifluoromethyl-5,6-dihydro-8H-[1,2,4]triazolo[4,3-a]pyrazin-7-yl)-thieno[2,3-d]pyrimidin-2-yloxy]-ethyl}-formamide] it was 7.92.

These data come from US20110166121A1 (LG LIFE SCIENCES LTD., priority 2008, published 2011).
